Source: patent US8835644B2, “Broad spectrum benzothiophene-nitrothiazolide and other antimicrobials” (University of Virginia Patent Foundation, priority 2009, dated 2014)
Converted amounts (≈) assume the structure as drawn. Like-named read-outs stand apart in the source and are kept apart here.

Columns and labels:
[1] = system: H. pylori; assay: MIC testing by broth dilution, H. pylori; format: cell-based, Helicobacter pylori
Method in brief: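 Helicobacter pylori was tested using a standard broth dilution method in 96 well microplates, each well holding a standard dilution of the organism in 100 microliters of Brain Heart Infusion. Compounds started at 32 μg/ml in 200 microliters in the first well and were serially diluted from 32 to 0.06. Wells were read visually at 24 h, and the MIC was the well with no growth.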

[2] = system: C. jejuni; assay: MIC testing by broth dilution, C. jejuni; format: cell-based, Campylobacter jejuni
Method in brief: (§1)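 Compounds were diluted serially from 32 μg/ml to 0.06 in medium holding a standard inoculum, then visually scored at 24 h, and the lowest well without growth was recorded. Media were LB for E. coli, Trypticase Soy for S. epidermidis and Brain Heart Infusion for C. jejuni. C. difficile zones were measured anaerobically relative to NTZ.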

[3] = system: MRSA; assay: MIC testing by broth dilution, MRSA; format: cell-based, Staphylococcus aureus
Method in brief: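 Values are broth-dilution MICs, defined as the well showing no growth on visual reading after 24 h; the tested range was 32 to 0.06 μg/ml, in organism-specific media (LB, Trypticase Soy, Brain Heart Infusion). The C. difficile entries come instead from anaerobic Kirby-Bauer disk zones, normalised to NTZ.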

[4] = system: S. epidermidis; assay: MIC testing by broth dilution, S. epidermidis plank; format: cell-based, Staphylococcus epidermidis
Method in brief: as §1

[5] = system: S. epidermidis biofilm; assay: S. epidermidis biofilm assay (activity tables); format: cell-based, Staphylococcus epidermidis; conditions: for MIC S. epidermidis Biofilm: Furan analogues table
Procedure: Staphylococcal strains were cultured overnight in TSB at 37° C. with shaking, diluted in fresh medium to an OD600 of 0.01 and 200 W was dispensed into sterile flat bottom polystyrene 96 well microtiter plates (Costar 3596, Corning Inc.). […] Each compound and dilution was tested in triplicate. The plates were incubated overnight at 37° C. in a humidified incubator, without shaking and both growth and biofilm accumulation were determined at 16 h.
Following recording of turbidities, the culture medium was aspirated and the wells were washed three times with distilled water, blotted on paper towels, and fixed with 75% ethanol for 10 minutes.
To visualize biofilm material, 0.5% crystal violet was added to each well and after 5 minutes was removed and the wells washed three times with distilled water. Plates were read using a microplate reader at a wavelength of 570 nm. The dye was then extracted by adding 200 W of 95% ethanol, and the absorbance was read again at 570 nm. All assays were performed in triplicate and the mean and standard deviation determined. […]
(§2) Representative compounds of the invention were tested in a series of assays against a series of organisms as described above. […] The organisms tested include, C. difficile, H. pylori, C. jejuni, MRSA, S. epidermidis, and E. coli. S. epidermidis and E. coli were tested in the plank and biofilm assay. A disk diffusion assay was also used for C. difficile. Direct PFOR enzyme assays were also performed. All analogues and derivatives were not tested on every organism in every type of assay (the “-” in each table means that it was not tested).

[6] = system: E. coli; assay: MIC testing by broth dilution, E. coli plank; format: cell-based, Escherichia coli
Method in brief: as §1

[7] = system: E. coli biofilm; assay: E. coli biofilm assay (activity tables); format: cell-based, Escherichia coli; conditions: biofilm
Procedure: A quantitative biofilm assay was used to determine the effect of NTZ on biofilm formation (41). Strain 042 was grown overnight at 37° C. with shaking and inoculated 1:100 in 200 μl culture medium in Costar 96-well, flat-bottom, polystyrene microtiter plates containing appropriate concentrations of NTZ. Plates were incubated statically at 37° C. in a humidified incubator. At 24 h, bacterial growth was measured by either transferring […] aliquots to another microtiter plate to determine turbidity or by diluting 100 μl aliquots 1:100 in 9.9 ml PBS for quantitative plate counts on LB medium. Bacterial counts in triplicate are reported as cfu/ml. Biofilm was visualized following staining with 0.5% crystal violet (41) and the absorbance was read at 570 nm using a microplate reader (Molecular Dynamics). All experiments were in triplicate and reported as mean and standard deviation.
(§3) A standard broth dilution protocol was used in 96 well microplates containing a standard dilution of the microorganism to be tested in 100 microliters of the appropriate medium. Appropriate medium: E. coli, LB medium; Staphylococcus strains, Trypticase Soy; and for H. pylori and C. jejuni, Brain Heart Infusion. The compounds to be tested were set at 32 μg/ml in 200 microliters in well one and then serially diluted to provide a range from 32 to 0.06. The wells were scored visually at 24 h. The well where there was no growth was recorded as the MIC. Clostridium difficile was tested by agar diffusion and disk diffusion (Kirby Bower) methods under anaerobic conditions on Wilkins Chalgrin agar. In these assays, zone of inhibited growth was measured and compared by relative ratio to the zone recorded for NTZ.
as §2

[8] = system: C. difficile; assay: Disk diffusion (Kirby Bower), C. difficile; format: cell-based, Clostridium difficile; conditions: zone of inhibited growth as relative ratio to the zone for NTZ
Procedure: as §3, §2

[9] = broth dilution, Brain Heart Infusion, 24 h, read-out: MIC (μM) H. pylori
[10] = broth dilution, Brain Heart Infusion, 24 h, read-out: MIC (μM) C. jejuni
[11] = broth dilution, Trypticase Soy, 24 h, read-out: MIC (μM) MRSA
[12] = broth dilution, Trypticase Soy, 24 h, read-out: MIC (μM) S. epidermidis Plank
[13] = broth dilution, LB medium, 24 h, read-out: MIC (μM) E. coli Plank
[14] = read-out: MIC (μM) E. coli Biofilm
[15] = Furan analogues table, read-out: MIC H. pylori
[16] = Furan analogues table, read-out: MIC C. jejuni
[17] = Furan analogues table, read-out: MIC MRSA
[18] = planktonic, Furan analogues table, read-out: MIC S. epidermidis Plank
[19] = planktonic, Furan analogues table, read-out: MIC E. coli Plank
[20] = Furan analogues table, read-out: MIC E. coli Biofilm

Row | Structure (SMILES) | MIC [1, 9] [µM] | MIC [2, 10] [µM] | MIC [3, 11] [µM] | MIC [4, 12] [µM] | MIC (μM) S. epidermidis Biofilm [5] [µM] | MIC [6, 13] [µM] | MIC [7, 14] [µM] | Disk Diffusion (%) C. difficile [8] [%] | MIC [1, 15] [µM] | MIC [2, 16] [µM] | MIC [3, 17] [µM] | MIC [4, 18] [µM] | MIC S. epidermidis Biofilm [5] [µM] | MIC [6, 19] [µM] | MIC [7, 20] [µM]
1 | CCCCCCCC(=O)Nc1ncc([N+](=O)[O-])s1 [VPC16b1046] | 0.8 (≈ 0.217 µg/mL) | 106.9 (≈ 29 µg/mL) | 59.0 (≈ 16 µg/mL) | 11.1 (≈ 3.01 µg/mL) | 7.4 (≈ 2.01 µg/mL) | 117.9 (≈ 32 µg/mL) | 88.4 (≈ 24 µg/mL) | 54 ± 4 | – | – | – | – | – | – | –
2 | O=C(Nc1ncc([N+](=O)[O-])s1)c1cccnc1 [VPC161176] | 4.0 (≈ 1 µg/mL) | 71.9 (≈ 18 µg/mL) | 127.9 (≈ 32 µg/mL) | 127.9 (≈ 32 µg/mL) | 63.9 (≈ 16 µg/mL) | 127.9 (≈ 32 µg/mL) | 127.9 (≈ 32 µg/mL) | – | – | – | – | – | – | – | –
3 | O=C(Nc1ncc([N+](=O)[O-])s1)c1ccncc1 [VPC161177] | 16.0 (≈ 4 µg/mL) | 24.0 (≈ 6.01 µg/mL) | 127.9 (≈ 32 µg/mL) | 127.9 (≈ 32 µg/mL) | 127.9 (≈ 32 µg/mL) | 127.9 (≈ 32 µg/mL) | 127.9 (≈ 32 µg/mL) | – | – | – | – | – | – | – | –
4 | O=C(Nc1ncc([N+](=O)[O-])s1)c1ccccc1C(F)(F)F [VPC161182] | 1.6 (≈ 0.508 µg/mL) | 18.9 (≈ 6 µg/mL) | 25.2 (≈ 7.99 µg/mL) | 25.2 (≈ 7.99 µg/mL) | 50.4 (≈ 16 µg/mL) | 100.9 (≈ 32 µg/mL) | 100.9 (≈ 32 µg/mL) | – | – | – | – | – | – | – | –
5 | O=C(Nc1ncc([N+](=O)[O-])s1)c1ccc(-c2ccc([N+](=O)[O-])cc2)o1 [VPC161189] | – | – | – | – | – | – | – | – | 6.9 (≈ 2.49 µg/mL) | 16.7 (≈ 6.02 µg/mL) | 88.8 (≈ 32 µg/mL) | 11.1 (≈ 4 µg/mL) | 11.1 (≈ 4 µg/mL) | 88.8 (≈ 32 µg/mL) | 88.8 (≈ 32 µg/mL)
6 | O=C(Nc1ncc([N+](=O)[O-])s1)c1ccc(-c2cccc([N+](=O)[O-])c2)o1 [VPC161190] | – | – | – | – | – | – | – | – | 6.9 (≈ 2.49 µg/mL) | 16.7 (≈ 6.02 µg/mL) | 44.4 (≈ 16 µg/mL) | 11.1 (≈ 4 µg/mL) | 11.1 (≈ 4 µg/mL) | 88.8 (≈ 32 µg/mL) | 88.8 (≈ 32 µg/mL)
7 | COc1ccccc1C(=O)Nc1ncc([N+](=O)[O-])s1 [VPC161192] | 1.8 (≈ 0.503 µg/mL) | 17.9 (≈ 5 µg/mL) | 114.6 (≈ 32 µg/mL) | 114.6 (≈ 32 µg/mL) | 114.6 (≈ 32 µg/mL) | 114.6 (≈ 32 µg/mL) | 57.3 (≈ 16 µg/mL) | – | – | – | – | – | – | – | –
